Here are results for nine molecules from publication PMC12066977, “Alkyl Tail Variation on Chalcone‐Based Quaternary Pyridinium Salts as Rule‐of‐Thumb for Antimicrobial Activity” (Archiv Der Pharmazie, 2025).

Data set [1] can be described thus: Cell viability and proliferation assay (WST8/CCK-8). To be noted: African green monkey, Vero cells (ATCC CCL-81), 48 h treatment, CCK-8; read-out: CC50 [95% CI] Vero cells. The class given is cell-based. The method, then:
Vero cell line (ATCC CCL‐81) was selected as a model system to investigate the overall effect of chalcones on non‐malignant mammalian cells. […] For experiments, cells were seeded into 96‐well plates at 10^4 cells/well and incubated at 37°C for 24 h. Following washes with PBS, the cell monolayer was incubated with 100 µL of medium containing the twofold serial dilutions of the compounds. Both untreated cells and cells incubated with medium containing solvent dilutions were included in each experiment as controls. The cell viability was assessed by a WST8‐based assay according to the manufacturer's instructions (CCK‐8, Cell Counting Kit‐8, Dojindo Molecular Technologies, Rockville, MD, USA). After 48 h of incubation, culture medium was removed from each well, the monolayer was washed with PBS, and 100 µL of fresh medium containing 10 µL of CCK‐8 solution was added. Following a 2 h incubation at 37°C, the OD450nm was read, and data were expressed as the percentage of cell viability relative to the untreated controls. The CC50 was obtained on the corresponding dose–response curves generated as previously reported for IC50 values. Experiments were carried out in triplicate in three biological replicates.
In general terms: Tetrazolium dyes change colour on reduction, which living cells bring about.

The test system of another data set is C. albicans ATCC 10231. Description: Broth microdilution antimicrobial assay (MIC, IC50). The class given is cell-based. To be noted: Candida albicans, 24 h; for IC50: ATCC10231, 50% growth inhibition, read-out: IC50 [95% confidence interval] Candida albicans; for MIC: ATCC10231, broth microdilution, 37°C. The method, then: (§1) Reference strains of Staphylococcus aureus (ATCC 25923), Escherichia coli (ATCC 25922), and Candida albicans (ATCC 10231) were used in this study as microbial models. These strains were purchased from the American Type Culture Collection (ATCC); bacterial cultures were routinely grown on 5% blood agar plate, while fungal cultures on Sabouraud Dextrose Agar (Biolife […]., Milan, Italy). […] In short, microbial inocula were prepared at 0.5 McFarland in PBS and, subsequently, bacterial suspensions were diluted 1:200 in Mueller-Hinton broth (Sigma-Aldrich, St. Louis, MO, USA), while fungal inoculum was diluted 1:20 in RPMI-1640 medium (Gibco®, ThermoFisher Scientific Inc., Waltham, MA, USA), containing glucose 2%, 0.3% levo-glutamine buffered to pH 7.0 with 0.165 M 3-(N-morpholino) propanesulfonic acid (MOPS). A total of 100 μL of these microbial suspensions was introduced into a 96-well microplate and incubated with 100 μL of the compounds, two-fold serially diluted in the range of 100-0.19 μM. Positive controls (microbial suspensions in regular media), negative controls (only compounds), and solvent controls (microbial suspensions incubated with DMSO dilutions) were included in the tests. The plate was incubated at 37°C for 24 h, and subsequently the optical density at 630 nm (OD630nm) was spectrophotometrically measured. Experiments were carried out in triplicate in three biological replicates. […] Statistical analysis was carried out by using GraphPad Prism version 9.4.1 for Windows (GraphPad Software, San Diego, California USA, www.graphpad.com). ^a MIC (Minimum Inhibitory Concentration) were determined in vitro by means of a standardized microdilution assay, in compliance with the Clinical and laboratory Standard Institute (CLSI) guidelines (30). Microbial suspensions were prepared at 0.5 McFarland in PBS, then diluted in the media and transferred in a 96 micro-well plate together with the serially 2-fold dilutions of the compounds. After 24h of incubation at 37°C, microbial growths were evaluated by measuring the Optical Density at 600 nm, then percentage values were obtained as relative to the positive controls (microbial suspensions in regular media).
On the technique in general: Dilution methods test growth across graded concentrations, often in twofold steps.

The next data set relates to E. coli ATCC 25922. The description is as above. To be noted: Escherichia coli, 24 h; for MIC: ATCC25922, broth microdilution, 37°C; for IC50: ATCC25922, 50% growth inhibition, read-out: IC50 [95% confidence interval] Escherichia coli. The class given is cell-based. The method, then:
as §1

For a further data set, the system named is S. aureus ATCC 25923. The data set is described as above. It counts as cell-based. To be noted: Staphylococcus aureus; for IC50: ATCC25923, 50% growth inhibition, 24 h, read-out: IC50 [95% confidence interval] Staphylococcus aureus; for MIC: ATCC25923, 24 h, broth microdilution, 37°C. The method, then: as §1
For another data set, the system named is E. coli. Description: Colistin association assay. The class given is cell-based, Escherichia coli. To be noted: colistin at sub-inhibitory concentration (MIC/8 = 0.027 µM). The method, then: This is a confirmation of the ability of these new QPySs to also affect Gram‐negative proliferation once they pass through the OM.
The dry powder of the chalcone‐based QPySs was resuspended in dimethylsulfoxide (DMSO) at 20 mM and used as stock solutions. For biological investigations, compounds were used in the range 100–0.78 µM, and the solvent in the corresponding percentage range. The following commercially available antimicrobials and toxic clinical drugs were purchased from Sigma‐Aldrich (St. Louis, MO, USA), dissolved in water, and used as reference controls. Gentamicin and ampicillin were used in the range 107.69–0.82 µM and 143.23–1.12 µM, respectively; the colistin was used at 0.03 µM in association with the chalcone‐based QASs with E. coli. The fluconazole was used in the assays with C. albicans in the range 3.27–0.03 µM. […]
In short, microbial inocula were prepared at 0.5 McFarland in PBS and, subsequently, bacterial suspensions were diluted 1:200 in Mueller–Hinton broth (Sigma‐Aldrich, St. Louis, MO, USA), while fungal inoculum was diluted 1:20 in RPMI‐1640 medium (Gibco®, ThermoFisher Scientific Inc., Waltham, MA, USA), containing glucose 2%, 0.3% levo‐glutamine buffered to pH 7.0 with 0.165 M 3‐(N‐morpholino) propanesulfonic acid (MOPS). […] The plate was incubated at 37°C for 24 h, and subsequently the optical density at 630 nm (OD630nm) was spectrophotometrically measured. […]

In data set [2] the test system is human red blood cells (hRBCs). Briefly: Hemolytic activity assay. It counts as cell-based. To be noted: 25 µM, 90 min, 37°C. How it is done:
The hemolytic activity of some selected compounds was evaluated as the amount of hemoglobin released by the disruption of human red blood cells (hRBCs). For the experiments, fresh hRBCs were collected by centrifugation at 1500g for 10 min, washed three times with PBS, and resuspended to a final concentration of 4% w/v hRBCs in PBS. Then, 100 µL of hRBCs suspension and an equal volume of the twofold dilutions of the antimicrobial peptides were mixed in a 96‐well plate and incubated for 90 min at 37°C. After centrifugation at 1000g for 5 min, the supernatants were transferred into a clear 96‐well plate, and OD405nm was read. Untreated hRBCs (incubated with PBS) and hRBCs incubated with 1% Triton X‐100 were employed as negative and positive controls, respectively. The hemolysis percentage was calculated as [OD405nm (sample) − OD4_05nm (negative control)]/[OD405nm (positive control) − OD405nm (negative control)] × 100. Minimal hemolytic concentrations (MHCs) were defined as the compound concentration causing 10% hemolysis. Three independent experiments were performed in triplicate.

The subject of data set [3] is S. aureus ATCC 25923, E. coli ATCC 25922, C. albicans ATCC 10231. Briefly: Broth microdilution antimicrobial assay, statements pooled over the three strains. The class given is cell-based. To be noted: stated for S. aureus, E. coli and C. albicans together; read-out: MIC toward the three selected strains. The method, then:
The antimicrobial activity of the compounds was assessed by determining the Minimum Inhibitory Concentration (MIC) by a well‐established broth microdilution procedure in microtiter plates and in compliance with the Clinical and Laboratory Standards Institute (CLSI) guidelines.
In short, microbial inocula were prepared at 0.5 McFarland in PBS and, subsequently, bacterial suspensions were diluted 1:200 in Mueller–Hinton broth (Sigma‐Aldrich, St. Louis, MO, USA), while fungal inoculum was diluted 1:20 in RPMI‐1640 medium (Gibco®, ThermoFisher Scientific Inc., Waltham, MA, USA), containing glucose 2%, 0.3% levo‐glutamine buffered to pH 7.0 with 0.165 M 3‐(N‐morpholino) propanesulfonic acid (MOPS). A total of 100 µL of these microbial suspensions was introduced into a 96‐well microplate and incubated with 100 µL of the compounds, two‐fold serially diluted in the range of 100–0.19 µM. Positive controls (microbial suspensions in regular media), negative controls (only compounds), and solvent controls (microbial suspensions incubated with DMSO dilutions) were included in the tests. The plate was incubated at 37°C for 24 h, and subsequently the optical density at 630 nm (OD630nm) was spectrophotometrically measured. Experiments were carried out in triplicate in three biological replicates. […]

Converted amounts (≈) assume the structure as drawn. A value given as a limit tells only on which side of the number the result lay.

By CC50 is commonly meant the concentration that lowers cell viability or growth by half. In general, IC50 refers to the midpoint of a concentration-inhibition curve. A word on the MIC: it is the lowest concentration found to suppress growth.

Consider `C#CCOc1ccc(C(=O)/C=C/c2ccc[n+](CCCCCC)c2)c(OCC#C)c1.[Br-]` [Compound 2, (E)‐3‐{3‐[2,4‐Bis(prop‐2‐yn‐1‐yloxy)phenyl]‐3‐oxoprop‐1‐en‐1‐yl}‐1‐hexylpyridin‐1‐ium bromide], for which, in data set [1], the cytotoxic concentration (CC50) at 48 h is more than 100 µM. The IC50 in the data set with C. albicans ATCC 10231 came out at 68.7 µM; in the data set on S. aureus ATCC 25923 it was 34.4 µM. Also, the MIC with C. albicans ATCC 10231 was 100 µM; against E. coli ATCC 25922, more than 100 µM; in the data set on S. aureus ATCC 25923, 50 µM. Besides, the “MIC Escherichia coli in association with colistin” value against E. coli was determined as 50 µM.
Regarding `C#CCOc1ccc(C(=O)/C=C/c2ccc[n+](CCCCCCCC)c2)c(OCC#C)c1` [Compound 3, (E)‐3‐{3‐[2,4‐Bis(prop‐2‐yn‐1‐yloxy)phenyl]‐3‐oxoprop‐1‐en‐1‐yl}‐1‐octylpyridin‐1‐ium bromide], the CC50 at 48 h in data set [1] came out at 47 µM. For the same molecule, the IC50 with C. albicans ATCC 10231 was found to be 30.5 µM; in the data set on E. coli ATCC 25922 it was 11 µM; with S. aureus ATCC 25923 it was 2.65 µM. The results for the MIC against C. albicans ATCC 10231, against E. coli ATCC 25922 and against S. aureus ATCC 25923 were 50 µM, 12.5 µM and 6.25 µM, respectively.
As for `C#CCOc1ccc(C(=O)/C=C/c2ccc[n+](CCCCCCCCCCCC)c2)c(OCC#C)c1.[Br-]` [Compound 5, (E)‐3‐{3‐[2,4‐Bis(prop‐2‐yn‐1‐yloxy)phenyl]‐3‐oxoprop‐1‐en‐1‐yl}‐1‐dodecylpyridin‐1‐ium bromide], the CC50 at 48 h in data set [1] amounted to 14 µM. Besides, the IC50 in the data set on C. albicans ATCC 10231 was determined as 1.57 µM; in the data set on E. coli ATCC 25922 it was 5.88 µM; in the data set on S. aureus ATCC 25923 it was 1.62 µM. The MIC is 3.12 µM in the data set with C. albicans ATCC 10231, 6.25 µM against E. coli ATCC 25922 and 3.12 µM in the data set on S. aureus ATCC 25923. Also, the hemolytic activity in data set [2] worked out at 40.9%.
With `C#CCOc1ccc(C(=O)/C=C/c2ccc[n+](CCCCCCCCCCCCCCCC)c2)c(OCC#C)c1` [Compound 7, (E)‐3‐{3‐[2,4‐Bis(prop‐2‐yn‐1‐yloxy)phenyl]‐3‐oxoprop‐1‐en‐1‐yl}‐1‐hexadecylpyridin‐1‐ium], the CC50 at 48 h in data set [1] was found to be 5.38 µM. The IC50 in the data set with C. albicans ATCC 10231 was determined as 5.76 µM; in the data set with S. aureus ATCC 25923, 4.21 µM. For the same molecule, the MIC in the data set with C. albicans ATCC 10231 was 6.25 µM; in the data set with E. coli ATCC 25922, more than 100 µM; against S. aureus ATCC 25923, 12.5 µM.
With `C#CCOc1ccc(C(=O)/C=C/c2ccc[n+](CCCCCCCCCCCCCCCCCC)c2)c(OCC#C)c1` [Compound 8, (E)‐3‐{3‐[2,4‐Bis(prop‐2‐yn‐1‐yloxy)phenyl]‐3‐oxoprop‐1‐en‐1‐yl}‐1‐octadecylpyridin‐1‐ium bromide], the CC50 at 48 h in data set [1] was 5.73 µM. In addition, the IC50 is 52.5 µM with C. albicans ATCC 10231 and 14.2 µM with S. aureus ATCC 25923. Besides, the MIC is more than 100 µM against C. albicans ATCC 10231, more than 100 µM with E. coli ATCC 25922 and 100 µM against S. aureus ATCC 25923.
For `C#CCOc1ccc(C(=O)/C=C/c2ccc[n+](CCCCCC[n+]3cccc(/C=C/C(=O)c4ccc(OCC#C)cc4OCC#C)c3)c2)c(OCC#C)c1` [Compound 10, 1,1′‐(Hexane‐1,6‐diyl)bis{3‐[(E)‐3‐(2,4‐bis‐prop‐2‐yn‐1‐yloxyphenyl)‐3‐oxoprop‐1‐en‐1‐yl]pyridin‐1‐ium} bromide], the CC50 at 48 h in data set [1] was more than 100 µM. Also, the IC50 was 95 µM in the data set on C. albicans ATCC 10231, 46 µM in the data set with E. coli ATCC 25922 and 58.3 µM with S. aureus ATCC 25923. The MIC in the data set on C. albicans ATCC 10231 is 100 µM; against E. coli ATCC 25922 it was 50 µM; in the data set with S. aureus ATCC 25923 it was 50 µM; in data set [3] it was not below 50 µM.
`COc1cccc2c1C(=O)c1c(O)c3c(c(O)c1C2=O)C[C@@](O)(C(=O)CO)C[C@@H]3O[C@H]1C[C@H](N)[C@H](O)[C@H](C)O1` [DOX, doxorubicin, reference compound]: the CC50 at 48 h in data set [1] came out at 70.6 µM.
Turning to `OC(Cn1cncn1)(Cn1cncn1)c1ccc(F)cc1F` [FLC, fluconazole, reference compound], in the data set with C. albicans ATCC 10231, the IC50 stood at 0.23 µM and the MIC worked out at 0.82 µM (≈ 0.251 µg/mL).
On to `CNC(C)C1CCC(N)C(OC2C(N)CC(N)C(OC3OCC(C)(O)C(NC)C3O)C2O)O1` (stereo not shown) [GEN, gentamicin, reference compound], for which the IC50 in the data set on E. coli ATCC 25922 was found to be 6.11 µM; in the data set with S. aureus ATCC 25923, 4 µM. Besides, the MIC in the data set on E. coli ATCC 25922 amounted to 13.1 µM (≈ 6.25 µg/mL); against S. aureus ATCC 25923, 6.54 µM (≈ 3.12 µg/mL).
